Experimental data reported in patent US5550131A, “2-piperazinone compounds and their use” (Takeda Chemical Industries, Ltd., priority 1993, dated 1996).

Columns and labels:
[1] = system: human platelet aggregation by ADP; assay: Determination of platelet aggregation in vitro (by ADP), human platelet rich plasma; type: cell-based; settings: human PRP, n = 3, ADP 0.6-1 μM, 37° C., read-out: Inhibition of platelet aggregation by ADP, IC50, human
Procedure: (§1) Method […] The sodium citrate--supplemented blood was centrifuged at 950 rpm for 10 minutes and 2,000 rpm for 10 minutes respectively at room temperature to obtain platelet rich plasma (PRP) and platelet poor plasma (PPP). PRP was diluted with PPP to adjust the number of platelets to be 500,000/μl. Platelet aggregation measured spectroscopically in accordance with Born's method (Nature 194: 927, 1962) using an aggregometer (HEMA TRACER VI Toa Iyo Denshi). The PRP (250 μl) was incubated at 37° C. for 2 minutes, to which was then added 25 μl of a test drug solution. Two minutes later, 25 μl of an agent for causing agglutination. The effect of the test drug was shown by the inhibition rate of the maximum aggregation rate of the test group against that of the control group. ADP was used in the minimum concentration (0.6-1 μM) capable of obtaining maximum aggregation. Inhibitory effect on platelet aggregation by ADP of the compounds of Working Examples

[2] = system: guinea pig platelet aggregation by ADP; assay: Determination of platelet aggregation in vitro (by ADP), guinea pig platelet rich plasma; type: cell-based; settings: Cavia porcellus, guinea pig PRP, n = 3, ADP 0.6-1 μM, 37° C., read-out: Inhibition of platelet aggregation by ADP, IC50, guinea pigs
Procedure: as §1

[3] = system: activated platelets of guinea pigs; assay: Binding experiment in vitro: specific binding of 125I-fibrinogen to activated platelets of guinea pigs; design: species or system guinea pig; settings: n=3; 125I-fibrinogen 0.1 μM; ADP 5×10^-5 M; 2 hours at room temperature; read-out: IC50 value against the specific binding of 125I-fibrinogen to activated platelets of guinea pigs
Procedure: Method Washed platelets were prepared from sodium citrate--supplemented blood of guinea pig, which were suspended in a Hepes Tyrode solution (pH 7.5) to adjust the number of platelets to be 500,000/μl. To 70 μl of this suspension was added 10 μl of an ADP solution (final concentration: 5×10^-5 M), and the mixture was left standing for 15 minutes at room temperature. To the mixture were added a solution of the test drug and 80 μl of a ^125 I-fibrinogen solution (final concentration: 0.1 μM), which was left standing for 2 hours at room temperature. Onto a 20% sucrose buffer solution was overlaid 100 μl of the reaction mixture, which was subjected to centrifuge at 3,000 rpm to separate platelet-adhesive ^125 I-fibrinogen from non-adhesive one. The radioactivity of the platelet-adhesive ^125 I-fibrinogen was determined. From the value obtained from the test groups against specific binding of the control group (processed with the buffer solution), the adhesion inhibiting ratio was determined. Action of the compound of Working Example 1 against the specific binding of ^125 I-fibrinogen to activated platelets of guinea pigs.

[4] = system: platelet aggregation caused by ADP; assay: Ex vivo platelet aggregation experiment (ADP) after oral administration to guinea pigs; type: in vivo, guinea pig
Procedure: Method After fasting overnight, guinea pigs were orally administered with a test drug solution (2 ml/kg). Blood was collected from the animals, under anesthesia with pentobarbital, after 1, 4 and 24 hours respectively. By the method described above, PRP was prepared and the platelet aggregation caused by ADP was measured. The rate of inhibition of aggregation was determined by the aggregation rate obtained in the test groups against that obtained in the control. The test drug was administered orally as a solution in distilled water. ADP aggregation inhibiting action by the compound of working Example 1 in guinea pigs

| Structure (SMILES) | IC50 [1] [nM] | IC50 [2] [nM] | other results |
| --- | --- | --- | --- |
| COC(=O)C[C@H]1C(=O)N(CC(=O)O)CCN1C(=O)C(Cc1ccc(O)c(O)c1)NC(=O)c1ccc(C(=N)N)cc1 (mixture of isomers) [Working Example 24] | 24 | 46 |  |
| COC(=O)C[C@H]1C(=O)N(CC(=O)O)CCN1C(=O)[C@H](Cc1ccc(O)cc1)NC(=O)c1ccc(C(=N)N)cc1.Cl [Working Example 1, (S)-4-(4-Amidinobenzoyl-L-Tyrosyl)-3-Methoxycarbonylmethyl-2-Oxopiperazine-1-Acetic Acid Hydrochloride] | 20 | 37 | IC50 [3]: 2.7 nM; ADP aggregation inhibition rate ([4]; 3 mg/kg p.o., after 1 hour, n=4): 100%; ADP aggregation inhibition rate ([4]; 3 mg/kg p.o., after 4 hour, n=4): 100%; ADP aggregation inhibition rate ([4]; 3 mg/kg p.o., after 24 hour, n=3): 100% |
| COC(=O)C[C@H]1C(=O)N(CC(=O)O)CCN1C(=O)[C@H](Cc1ccc(OC)cc1)NC(=O)c1ccc(C(=N)N)cc1 [Working Example 3, (S)-4-(4-Amidinobenzoyl-O-Methyl-L-Tyrosyl)-3-Methoxycarbonylmethyl-2-Oxopiperazine-1 -Acetic Acid] | 10 | 15 | ADP aggregation inhibition rate ([4]; 1 mg/kg p.o., after 1 hour, n=6): 95%; ADP aggregation inhibition rate ([4]; 1 mg/kg p.o., after 4 hour, n=6): 100% |
| CCOc1ccc(C[C@H](NC(=O)c2ccc(C(=N)N)cc2)C(=O)N2CCN(CC(=O)O)C(=O)[C@@H]2CC(=O)OC)cc1 [Working Example 4, (S)-4-(4-amidinobenzoyl-O-ethyl-L-tyrosyl)-3-methoxycarbonylmethyl-2-oxopiperazine-1-acetic acid] |  | 120 |  |
| CCCOc1ccc(C[C@H](NC(=O)c2ccc(C(=N)N)cc2)C(=O)N2CCN(CC(=O)O)C(=O)[C@@H]2CC(=O)OC)cc1 [Working Example 5] | 40 | 34 |  |
| C=CCOc1ccc(C[C@H](NC(=O)c2ccc(C(=N)N)cc2)C(=O)N2CCN(CC(=O)O)C(=O)[C@@H]2CC(=O)OC)cc1 [Working Example 18] | 20 | 26 |  |
| COC(=O)C[C@H]1C(=O)N(CC(=O)O)CCN1C(=O)[C@H](Cc1ccc(F)cc1)NC(=O)c1ccc(C(=N)N)cc1 [Working Example 21] | 26 | 38 |  |
| COC(=O)C[C@H]1C(=O)N(CC(=O)O)CCN1C(=O)[C@H](Cc1ccc(O)c(F)c1)NC(=O)c1ccc(C(=N)N)cc1 [Working Example 22] | 18 | 47 |  |
| COC(=O)C[C@H]1C(=O)N(CC(=O)O)CCN1C(=O)[C@H](Cc1ccc(O)cc1F)NC(=O)c1ccc(C(=N)N)cc1 [Working Example 23] | 17 | 38 |  |
| COC(=O)C[C@H]1C(=O)N(CC(=O)O)CCN1C(=O)[C@H](Cc1ccc(OC)cc1)NC(=O)c1ccc(CCN)cc1 [Working Example 31] | 12 | 18 |  |
